# Reference: PubChem BioAssay (NCI)
#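 Briefly, cells in 96-well plates were exposed to five compound concentrations for 48 h, and endpoints were estimated by linear interpolation. TGI: total growth inhibition.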
# Columns and labels:
# Assay in all cases: NCI anticancer screen, dose series, 48 h
# NCI-H460 lung = test system: NCI-H460 lung
# NCI/ADR-RES ovarian = test system: NCI/ADR-RES ovarian
# SW-620 colon = test system: SW-620 colon
# SK-OV-3 ovarian = test system: SK-OV-3 ovarian
# PC-3 prostate = test system: PC-3 prostate
# SF-539 CNS = test system: SF-539 CNS
# HOP-92 NSCLC = test system: HOP-92 NSCLC
# OVCAR-5 ovarian = test system: OVCAR-5 ovarian
# RPMI-8226 leukemia = test system: RPMI-8226 leukemia
# RXF 393 renal = test system: RXF 393 renal
# UACC-257 melanoma = test system: UACC-257 melanoma
# SK-MEL-5 melanoma = test system: SK-MEL-5 melanoma
# U251 CNS = test system: U251 CNS
# SN12C renal = test system: SN12C renal
# MCF7 breast = test system: MCF7 breast
# SNB-75 CNS = test system: SNB-75 CNS
# UACC-62 melanoma = test system: UACC-62 melanoma
# A498 renal = test system: A498 renal
# HT29 colon = test system: HT29 colon
# OVCAR-3 ovarian = test system: OVCAR-3 ovarian
# HCT-15 colon = test system: HCT-15 colon
# MALME-3M melanoma = test system: MALME-3M melanoma
# OVCAR-8 ovarian = test system: OVCAR-8 ovarian
# ACHN renal = test system: ACHN renal
# A549 NSCLC = test system: A549 NSCLC
# KM12 colon = test system: KM12 colon
# UO-31 renal = test system: UO-31 renal
# K-562 leukemia = test system: K-562 leukemia
# SK-MEL-28 melanoma = test system: SK-MEL-28 melanoma
# HS 578T breast = test system: HS 578T breast
# SF-295 CNS = test system: SF-295 CNS
# TK-10 renal = test system: TK-10 renal
# SK-MEL-2 melanoma = test system: SK-MEL-2 melanoma
# BT-549 breast = test system: BT-549 breast
# SF-268 CNS = test system: SF-268 CNS
# T-47D breast = test system: T-47D breast
# COLO 205 colon = test system: COLO 205 colon
# NCI-H226 lung = test system: NCI-H226 lung
# MDA-MB-231 breast = test system: MDA-MB-231 breast
# SNB-19 CNS = test system: SNB-19 CNS
# CAKI-1 renal = test system: CAKI-1 renal
# NCI-H522 lung = test system: NCI-H522 lung
# LOX IMVI melanoma = test system: LOX IMVI melanoma
# DU-145 prostate = test system: DU-145 prostate
# HOP-62 NSCLC = test system: HOP-62 NSCLC
# HCT-116 colon = test system: HCT-116 colon
# NCI-H23 lung = test system: NCI-H23 lung
# MDA-N = test system: MDA-N
# EKVX NSCLC = test system: EKVX NSCLC
# M14 melanoma = test system: M14 melanoma
# 786-0 renal = test system: 786-0 renal
# OVCAR-4 ovarian = test system: OVCAR-4 ovarian
# MDA-MB-435 = test system: MDA-MB-435
# IGROV1 ovarian = test system: IGROV1 ovarian
# CCRF-CEM leukemia = test system: CCRF-CEM leukemia
# HCC-2998 colon = test system: HCC-2998 colon
# HL-60(TB) leukemia = test system: HL-60(TB) leukemia
smiles,measurement,setting,value
O=C(CON1C(=O)c2ccccc2C1=O)c1ccccc1,TGI,NCI-H460 lung,> 100 µM
same,TGI,NCI/ADR-RES ovarian,> 100 µM
same,TGI,SW-620 colon,69.1 µM
same,TGI,SK-OV-3 ovarian,> 100 µM
same,TGI,PC-3 prostate,> 100 µM
same,TGI,SF-539 CNS,> 100 µM
same,TGI,HOP-92 NSCLC,> 100 µM
same,TGI,OVCAR-5 ovarian,> 100 µM
same,TGI,RPMI-8226 leukemia,40.4 µM
same,TGI,RXF 393 renal,> 100 µM
same,TGI,UACC-257 melanoma,> 100 µM
same,TGI,SK-MEL-5 melanoma,> 100 µM
same,TGI,U251 CNS,> 100 µM
same,TGI,SN12C renal,> 100 µM
same,TGI,MCF7 breast,> 100 µM
same,TGI,SNB-75 CNS,> 100 µM
same,TGI,UACC-62 melanoma,> 100 µM
same,TGI,A498 renal,> 100 µM
same,TGI,HT29 colon,> 100 µM
same,TGI,OVCAR-3 ovarian,> 100 µM
same,TGI,HCT-15 colon,> 100 µM
same,TGI,MALME-3M melanoma,56.9 µM
same,TGI,OVCAR-8 ovarian,> 100 µM
same,TGI,ACHN renal,> 100 µM
same,TGI,A549 NSCLC,> 100 µM
same,TGI,KM12 colon,> 100 µM
same,TGI,UO-31 renal,40.7 µM
same,TGI,K-562 leukemia,> 100 µM
same,TGI,SK-MEL-28 melanoma,> 100 µM
same,TGI,HS 578T breast,> 100 µM
same,TGI,SF-295 CNS,> 100 µM
same,TGI,TK-10 renal,55 µM
same,TGI,SK-MEL-2 melanoma,> 100 µM
same,TGI,BT-549 breast,> 100 µM
same,TGI,SF-268 CNS,> 100 µM
same,TGI,T-47D breast,52.6 µM
same,TGI,COLO 205 colon,> 100 µM
same,TGI,NCI-H226 lung,> 100 µM
same,TGI,MDA-MB-231 breast,> 100 µM
same,TGI,SNB-19 CNS,> 100 µM
same,TGI,CAKI-1 renal,34.8 µM
same,TGI,NCI-H522 lung,36.6 µM
same,TGI,LOX IMVI melanoma,> 100 µM
same,TGI,DU-145 prostate,> 100 µM
same,TGI,HOP-62 NSCLC,> 100 µM
same,TGI,HCT-116 colon,> 100 µM
same,TGI,NCI-H23 lung,> 100 µM
same,TGI,MDA-N,> 100 µM
same,TGI,EKVX NSCLC,> 100 µM
same,TGI,M14 melanoma,> 100 µM
same,TGI,786-0 renal,> 100 µM
same,TGI,OVCAR-4 ovarian,> 100 µM
same,TGI,MDA-MB-435,> 100 µM
same,TGI,IGROV1 ovarian,> 100 µM
CC(=O)SSC1(Cl)C(C)(C)C(Cl)(SSC(C)=O)C1(C)C (stereo not given),TGI,NCI-H460 lung,82.9 µM
same,TGI,NCI/ADR-RES ovarian,> 100 µM
same,TGI,SW-620 colon,> 100 µM
same,TGI,SK-OV-3 ovarian,> 100 µM
same,TGI,PC-3 prostate,> 100 µM
same,TGI,SF-539 CNS,61.5 µM
same,TGI,HOP-92 NSCLC,> 100 µM
same,TGI,OVCAR-5 ovarian,> 100 µM
same,TGI,RXF 393 renal,48.5 µM
same,TGI,UACC-257 melanoma,> 100 µM
same,TGI,SK-MEL-5 melanoma,> 100 µM
same,TGI,U251 CNS,> 100 µM
same,TGI,SN12C renal,> 100 µM
same,TGI,MCF7 breast,> 100 µM
same,TGI,SNB-75 CNS,82.5 µM
same,TGI,UACC-62 melanoma,> 100 µM
same,TGI,A498 renal,> 100 µM
same,TGI,HT29 colon,> 100 µM
same,TGI,OVCAR-3 ovarian,> 100 µM
same,TGI,HCT-15 colon,> 100 µM
same,TGI,MALME-3M melanoma,> 100 µM
same,TGI,OVCAR-8 ovarian,> 100 µM
same,TGI,ACHN renal,> 100 µM
same,TGI,A549 NSCLC,> 100 µM
same,TGI,KM12 colon,> 100 µM
same,TGI,UO-31 renal,> 100 µM
same,TGI,SK-MEL-28 melanoma,> 100 µM
same,TGI,HS 578T breast,> 100 µM
same,TGI,SF-295 CNS,> 100 µM
same,TGI,TK-10 renal,> 100 µM
same,TGI,SK-MEL-2 melanoma,> 100 µM
same,TGI,BT-549 breast,> 100 µM
same,TGI,SF-268 CNS,> 100 µM
same,TGI,T-47D breast,51.7 µM
same,TGI,COLO 205 colon,> 100 µM
same,TGI,NCI-H226 lung,> 100 µM
same,TGI,MDA-MB-231 breast,> 100 µM
same,TGI,SNB-19 CNS,> 100 µM
same,TGI,CAKI-1 renal,> 100 µM
same,TGI,NCI-H522 lung,> 100 µM
same,TGI,LOX IMVI melanoma,> 100 µM
same,TGI,DU-145 prostate,> 100 µM
same,TGI,HOP-62 NSCLC,> 100 µM
same,TGI,HCT-116 colon,> 100 µM
same,TGI,CCRF-CEM leukemia,60.2 µM
same,TGI,NCI-H23 lung,> 100 µM
same,TGI,MDA-N,> 100 µM
same,TGI,EKVX NSCLC,> 100 µM
same,TGI,M14 melanoma,> 100 µM
same,TGI,786-0 renal,> 100 µM
same,TGI,OVCAR-4 ovarian,> 100 µM
same,TGI,MDA-MB-435,> 100 µM
same,TGI,IGROV1 ovarian,> 100 µM
COc1ccc2c(c1)c(=O)c1c(NCCN(C)C)ccc3c(=O)n(CCN(C)C)c(=O)n2c31,TGI,NCI-H460 lung,1.46 µM
same,TGI,NCI/ADR-RES ovarian,3.63 µM
same,TGI,SK-OV-3 ovarian,11.9 µM
same,TGI,PC-3 prostate,0.816 µM
same,TGI,HOP-92 NSCLC,0.791 µM
same,TGI,OVCAR-5 ovarian,12.6 µM
same,TGI,RPMI-8226 leukemia,0.3 µM
same,TGI,UACC-257 melanoma,0.804 µM
same,TGI,SK-MEL-5 melanoma,0.594 µM
same,TGI,U251 CNS,2.29 µM
same,TGI,SN12C renal,0.594 µM
same,TGI,MCF7 breast,4.75 µM
same,TGI,SNB-75 CNS,0.719 µM
same,TGI,UACC-62 melanoma,0.984 µM
same,TGI,A498 renal,1.35 µM
same,TGI,HT29 colon,1.39 µM
same,TGI,OVCAR-3 ovarian,2.11 µM
same,TGI,HCT-15 colon,2.62 µM
same,TGI,MALME-3M melanoma,1.02 µM
same,TGI,OVCAR-8 ovarian,3.1 µM
same,TGI,ACHN renal,3.85 µM
same,TGI,A549 NSCLC,10.2 µM
same,TGI,KM12 colon,0.659 µM
same,TGI,UO-31 renal,1.03 µM
same,TGI,K-562 leukemia,0.0354 µM
same,TGI,SK-MEL-28 melanoma,3.71 µM
same,TGI,HS 578T breast,0.841 µM
same,TGI,SF-295 CNS,12 µM
same,TGI,TK-10 renal,3.45 µM
same,TGI,SK-MEL-2 melanoma,0.415 µM
same,TGI,BT-549 breast,3.22 µM
same,TGI,SF-268 CNS,2.13 µM
same,TGI,T-47D breast,5.77 µM
same,TGI,COLO 205 colon,0.247 µM
same,TGI,NCI-H226 lung,0.892 µM
same,TGI,MDA-MB-231 breast,0.855 µM
same,TGI,SNB-19 CNS,4.3 µM
same,TGI,CAKI-1 renal,0.599 µM
same,TGI,NCI-H522 lung,0.31 µM
same,TGI,HCC-2998 colon,0.569 µM
same,TGI,LOX IMVI melanoma,1.22 µM
same,TGI,DU-145 prostate,1.23 µM
same,TGI,HOP-62 NSCLC,1.78 µM
same,TGI,HCT-116 colon,1.06 µM
same,TGI,NCI-H23 lung,0.315 µM
same,TGI,MDA-N,0.254 µM
same,TGI,EKVX NSCLC,1.31 µM
same,TGI,M14 melanoma,0.835 µM
same,TGI,HL-60(TB) leukemia,0.569 µM
same,TGI,786-0 renal,0.87 µM
same,TGI,OVCAR-4 ovarian,1.7 µM
same,TGI,MDA-MB-435,0.538 µM
same,TGI,IGROV1 ovarian,1.2 µM
